Results published in patent US20080194585A1, “Fungicidal Pyrazine Derivatives” (priority 2005, published 2008).
Marks after values point to notes of the source that are not given here.

What was measured:
fusarium graminearium = assay: Test I: wheat head scab, preventive spray on wheat seedlings
Protocol: (the causal agent of wheat head scab) and incubated in a saturated atmosphere at 20° C. for 72 h, and then moved to a growth chamber at 22° C. for 5 days, after which disease ratings were made.

[1] = test system: Erysiphe graminis f. sp. tritici; assay: Test L: wheat powdery mildew, preventive spray on wheat seedlings
Rhizoctonia oryzae = assay: Test G: turf brown patch, preventive spray on creeping bent grass seedlings
Protocol: (the causal agent of turf brown patch) and incubated in a saturated atmosphere at 27° C. for 24 h, and then moved to a growth chamber at 27° C. for 5 days, after which disease ratings were made.

Botrytis cinerea = assay: Test E: tomato botrytis, preventive spray on tomato seedlings
Septoria nodorum = assay: Test H: wheat glum blotch, preventive spray on wheat seedlings
Protocol: (the causal agent of wheat glum blotch) and incubated in a saturated atmosphere at 20° C. for 48 h, and then moved to a growth chamber at 22° C. for 5 days, after which disease ratings were made.

[2] = test system: Puccinia recondita f. sp. tritici; assay: Test K: wheat leaf rust, preventive spray on wheat seedlings
Septoria tritici = assay: Test J: wheat leaf blotch, preventive spray on wheat seedlings; type: in vivo
Source text: A dash (-) indicates no test results.

Phytophthora infestans = assay: whole plant or invertebrate; type: in vivo
Plasmopara viticola = assay: Test D: grape downy mildew, spray after inoculation of grape seedlings; type: in vivo
Source text: Upon removal, disease ratings were made. […] A dash (-) indicates no test results.

Pythium aphanidermatum = assay: Test A: bluegrass pythium blight, preventive spray on bluegrass seedlings
[3] = test system: Colletotrichum orbiculare; assay: Test B: cucumber Colletotrichum anthracnose, preventive spray on cucumber seedlings; conditions: for Test B disease control rating: 40 ppm (marked *), 100 = 100% disease control, 0 = no control
[4] = 40 ppm (marked *), 100 = 100% disease control, 0 = no control
[5] = 200 ppm, 100 = 100% disease control, 0 = no control relative to controls

Row | SMILES | Test I disease control rating (fusarium graminearium; [4]) | Test L disease control rating [1, 4] | Test G disease control rating (Rhizoctonia oryzae; [4]) | Test H disease control rating (Septoria nodorum; [4]) | Test K disease control rating [2, 4] | Test J disease control rating (Septoria tritici; [4]) | Test F disease control rating (Phytophthora infestans; [4]) | Test D disease control rating (Plasmopara viticola; [4]) | Test A disease control rating (Pythium aphanidermatum; [4]) | Test B disease control rating [3] | Test I disease control rating (fusarium graminearium; [5]) | Test E disease control rating (Botrytis cinerea; [4]) | Test F disease control rating (Phytophthora infestans; [5]) | Test A disease control rating (Pythium aphanidermatum; [5]) | further results
1 | CC(C)Cn1c(-c2c(F)cccc2F)c(Br)nc(-n2cccn2)c1=O [Compound 99, 5-Bromo-6-(2,6-difluorophenyl)-1-(2-methylpropyl)-3-(1H-pyrazol-1-yl)-2(1H)-pyrazinone] |  |  |  |  |  |  |  |  |  |  |  |  |  |  | pest or weed control at 200 ppm (fusarium graminearium; Fusarium, in Triticum aestivum, topical, 192 h, read-out: Test I disease control rating, 200 ppm): 0%; pest or weed control at 200 ppm ([1]; Blumeria graminis, in Triticum aestivum, 168 h, read-out: Test L disease control rating, 200 ppm): 100%; pest or weed control at 200 ppm (Rhizoctonia oryzae; Waitea circinata, in Agrostis stolonifera, topical, 144 h, read-out: Test G disease control rating, 200 ppm): 82%; pest or weed control at 200 ppm (Botrytis cinerea; Botrytis cinerea, in Solanum lycopersicum, topical, 72 h, read-out: Test E disease control rating): 100%; pest or weed control at 200 ppm (Septoria nodorum; Parastagonospora nodorum, in Triticum aestivum, topical, 168 h, read-out: Test H disease control rating, 200 ppm): 100%; pest or weed control at 200 ppm ([2]; Puccinia recondita, in Triticum aestivum, 192 h, read-out: Test K disease control rating): 100%; pest or weed control at 200 ppm (Septoria tritici; Zymoseptoria tritici, 528 h, 200 ppm, read-out: Test J disease control rating): 100%; pest or weed control at 200 ppm (Phytophthora infestans; Phytophthora infestans, in Solanum lycopersicum, topical, 144 h, read-out: Test F disease control rating): 0%; pest or weed control at 200 ppm (Plasmopara viticola; Plasmopara viticola, 168 h, 200 ppm, read-out: Test D disease control rating): 0%; pest or weed control at 200 ppm (Pythium aphanidermatum; Pythium aphanidermatum, 120 h, read-out: Test A disease control rating): 0%; pest or weed control at 200 ppm ([3]; Colletotrichum orbiculare, in Cucumis sativus, 144 h, read-out: Test B disease control rating, 200 ppm): 99%
2 | CC(C)(C)Cn1c(-c2c(F)cccc2F)c(Cl)nc(-n2cccn2)c1=O [compound 59] |  |  |  |  |  |  |  |  |  |  |  |  |  |  | Test I disease control rating (fusarium graminearium; 200 ppm): 0%; Test L disease control rating ([1]; 40 ppm (*)): 98* %; Test G disease control rating (Rhizoctonia oryzae; 40 ppm (*)): 49* %; Test E disease control rating (Botrytis cinerea; 40 ppm (*)): 100* %; Test H disease control rating (Septoria nodorum; 40 ppm (*)): 73* %; Test K disease control rating ([2]; 40 ppm (*)): 94* %; Test J disease control rating (Septoria tritici; 40 ppm (*)): 100* %; Test F disease control rating (Phytophthora infestans; 200 ppm): 0%; Test D disease control rating (Plasmopara viticola; 200 ppm): 0%; Test A disease control rating (Pythium aphanidermatum; 200 ppm): 0%
3 | Cc1ccc(-n2c(-c3c(F)cccc3F)c(Cl)nc(-n3ccc(C)n3)c2=O)c(C)c1 [compound 335] | 0* % | 71* % | 0* % | 98* % | 91* % | 99* % | 0* % | 0* % | 0* % | 0* % |  |  |  |  | 
4 | O=c1c(-n2cccn2)nc(Cl)c(-c2c(F)cccc2F)n1-c1cccc(F)c1 [compound 337] | 0* % | 0* % | 29* % | 99* % | 95* % | 100* % | 0* % | 0* % | 0* % | 76* % |  |  |  |  | 
5 | Cc1ccn(-c2nc(Cl)c(-c3c(F)cccc3F)n(-c3cccc(F)c3)c2=O)n1 [compound 338] | 0* % | 0* % | 16* % | 100* % | 99* % | 98* % | 0* % | 0* % | 0* % | 80* % |  |  |  |  | 
6 | O=c1c(-n2cccn2)nc(Cl)c(-c2c(F)cccc2F)n1-c1ccccc1F [compound 339] | 0* % | 0* % | 0* % | 99* % | 89* % | 100* % | 0* % | 0* % | 0* % | 0* % |  |  |  |  | 
7 | Cc1ccn(-c2nc(Cl)c(-c3c(F)cccc3F)n(-c3ccccc3F)c2=O)n1 [compound 340] | 0* % | 0* % | 0* % | 99* % | 95* % | 95* % | 0* % | 0* % | 0* % | 0* % |  |  |  |  | 
8 | Cc1ccn(-c2nc(Cl)c(-c3c(F)cccc3F)n(Cc3ccc(F)cc3)c2=O)n1 [compound 341] | 0* % | 63* % | 0* % | 99* % | 100* % | 98* % | 0* % | 79* % | 0* % | 52* % |  |  |  |  | 
9 | COc1ccccc1-n1c(-c2c(F)cccc2F)c(Cl)nc(-n2cccn2)c1=O [compound 393] |  | 0* % | 0* % | 73* % | 89* % | 33* % |  |  |  | 41* % | 0% | 29* % | 0% | 0% | 
10 | COc1cccc(-n2c(-c3c(F)cccc3F)c(Cl)nc(-n3cccn3)c2=O)c1 [compound 394] |  | 99* % | 47* % | 100* % | 100* % | 100* % |  |  |  | 99* % | 78% | 99* % | 0% | 0% | 
11 | COc1ccc(-n2c(-c3c(F)cccc3F)c(Cl)nc(-n3cccn3)c2=O)cc1 [compound 395] |  | 0* % | 0* % | 95* % | 99* % | 99* % |  |  |  | 57* % | 0% | 80* % | 0% | 0% | 
12 | O=c1c(-n2cccn2)nc(Cl)c(-c2c(F)cccc2F)n1-c1ccccc1OC(F)(F)F [compound 396] |  | 91* % | 0* % | 89* % | 94* % | 85* % |  |  |  | 13* % | 0% | 70* % | 0% | 0% | 
13 | O=c1c(-n2cccn2)nc(Cl)c(-c2c(F)cccc2F)n1-c1ccccc1OC(F)(F)F [compound 397] |  | 0* % | 0* % | 94* % | 80* % | 94* % |  |  |  | 37* % | 0% | 99* % | 0% | 0% | 
14 | O=c1c(-n2cccn2)nc(Cl)c(-c2c(F)cccc2F)n1-c1ccc(OC(F)(F)F)cc1 [compound 398] |  | 78* % | 24* % | 75* % | 97* % | 97* % |  |  |  | 56* % | 0% | 98* % | 0% | 0% | 
15 | O=c1c(-n2cccn2)nc(Cl)c(-c2c(F)cccc2F)n1-c1ccccc1C(F)(F)F [compound 399] |  | 93* % | 24* % | 90* % | 99* % | 100* % |  |  |  | 88* % | 0% | 97* % | 0% | 0% | 
